# Data reported in patent US20100267561A1, “HERBICIDAL PYRIDAZINONE DERIVATIVES” (priority 2007, published 2010).
# How the values were obtained:
# Test in all cases: Test B pre-/postemergence plant response
# Format in all cases: in vivo
# [1] = tested on: downy bromegrass (Bromus tectorum); conditions: for Bromegrass, Downy plant response rating: 8 g ai/ha
# Procedure, shortened: (§1)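 Visual scoring from 0 (no effect) to 100 (complete control) against untreated controls was done 13 to 15 days after greenhouse treatment. Chemicals were formulated in a surfactant-containing non-phytotoxic solvent and applied to soil preemergence or to 1- to 4-leaf (2-18 cm) plants postemergence.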
# [2] = tested on: catchweed bedstraw (Galium aparine); conditions: Preemergence
# Procedure, shortened: as §1
# [3] = tested on: velvetleaf (Abutilon theophrasti); conditions: for Velvetleaf plant response rating: 8 g ai/ha
# Procedure, shortened: as §1
# [4] = tested on: giant foxtail (Setaria faberii); conditions: for Foxtail, Giant plant response rating: 8 g ai/ha
# Procedure, shortened: as §1
# [5] = tested on: yellow nutsedge (Cyperus esculentus); conditions: for Nutsedge, Yellow plant response rating: 8 g ai/ha
# Procedure, shortened: as §1
# [6] = tested on: common (oilseed) sunflower (Helianthus annuus); conditions: Preemergence
# Procedure, shortened: as §1
# [7] = tested on: blackgrass (Alopecurus myosuroides); conditions: for Blackgrass plant response rating: 8 g ai/ha
# Procedure, shortened: as §1
# [8] = tested on: wild oat (Avena fatua); conditions: for Oat, Wild plant response rating: 8 g ai/ha
# Procedure, shortened: as §1
# [9] = tested on: kochia (Kochia scoparia); conditions: for Kochia plant response rating: 8 g ai/ha
# Procedure, shortened: as §1
# [10] = tested on: lambsquarters (Chenopodium album); conditions: for Lambsquarters plant response rating: 8 g ai/ha
# Procedure, shortened: as §1
# [11] = tested on: woolly cupgrass (Eriochloa villosa); conditions: for Cupgrass, Woolly plant response rating: 8 g ai/ha
# Procedure, shortened: as §1
# [12] = tested on: pigweed (Amaranthus retroflexus); conditions: for Pigweed plant response rating: 8 g ai/ha
# Procedure, shortened: as §1
# [13] = tested on: common ragweed (Ambrosia elation); conditions: for Ragweed plant response rating: 8 g ai/ha
# Procedure, shortened: as §1
# [14] = tested on: corn (Zea mays); conditions: for Corn plant response rating: 8 g ai/ha
# Procedure, shortened: as §1
# [15] = Postemergence, 16 g ai/ha, scale 0 to 100
# [16] = Postemergence, 31 g ai/ha, scale 0 to 100, 0 no effect, 100 complete control
# [17] = Postemergence, 62 g ai/ha, scale 0 to 100, 0 no effect, 100 complete control
# [18] = Preemergence, 16 g ai/ha, scale 0 to 100 (0 no effect, 100 complete control)
# [19] = Preemergence, 31 g ai/ha, 0 to 100 scale, 0 no effect, 100 complete control
# [20] = Preemergence, 62 g ai/ha, scale 0 to 100
# [21] = 16 g ai/ha, scale 0 to 100 (0 no effect, 100 complete control)
# [22] = 31 g ai/ha, 0 to 100 scale, 0 no effect, 100 complete control
smiles,measurement,setting,value
Cc1cc(-c2ccc(Cl)cc2)nn1-c1c(OC(=O)CC(C)C)cnn(C)c1=O [Compound 37],"Bromegrass, Downy plant response rating","[1]; postemergence, 0-100 scale",0
same,"Plant response rating, Bromegrass, Downy",[1]; [15],55
same,"Plant response rating, Bromegrass, Downy",[1]; [16],55
same,"Plant response rating, Bromegrass, Downy",[1]; [17],75
same,"Plant response rating, Bromegrass, Downy",[1]; [18],30
same,"Plant response rating, Bromegrass, Downy",[1]; [19],60
same,"Plant response rating, Bromegrass, Downy",[1]; [20],80
same,"Bromegrass, Downy plant response rating","[1]; Preemergence, scale 0 to 100",0
same,"Plant response rating, Galium",[2]; [21],0
same,"Plant response rating, Galium",[2]; [22],0
same,"Plant response rating, Galium","[2]; 62 g ai/ha, scale 0 to 100",0
same,Galium plant response rating,"[2]; 8 g ai/ha, scale 0 to 100",0
same,Velvetleaf plant response rating,"[3]; postemergence, 0-100 scale",0
same,"Plant response rating, Velvetleaf",[3]; [15],0
same,"Plant response rating, Velvetleaf",[3]; [17],0
same,"Plant response rating, Velvetleaf",[3]; [18],0
same,"Plant response rating, Velvetleaf",[3]; [19],0
same,"Plant response rating, Velvetleaf",[3]; [20],0
same,Velvetleaf plant response rating,"[3]; Preemergence, scale 0 to 100",0
same,"Foxtail, Giant plant response rating","[4]; postemergence, 0-100 scale",30
same,"Plant response rating, Foxtail, Giant",[4]; [15],70
same,"Plant response rating, Foxtail, Giant",[4]; [16],85
same,"Plant response rating, Foxtail, Giant",[4]; [17],100
same,"Plant response rating, Foxtail, Giant",[4]; [18],100
same,"Plant response rating, Foxtail, Giant",[4]; [19],100
same,"Plant response rating, Foxtail, Giant",[4]; [20],100
same,"Foxtail, Giant plant response rating","[4]; Preemergence, scale 0 to 100",100
same,"Nutsedge, Yellow plant response rating","[5]; postemergence, 0-100 scale",0
same,"Plant response rating, Nutsedge, Yellow",[5]; [15],0
same,"Plant response rating, Nutsedge, Yellow",[5]; [16],0
same,"Plant response rating, Nutsedge, Yellow",[5]; [17],0
same,"Plant response rating, Nutsedge, Yellow",[5]; [18],0
same,"Plant response rating, Nutsedge, Yellow",[5]; [19],0
same,"Plant response rating, Nutsedge, Yellow",[5]; [20],0
same,"Nutsedge, Yellow plant response rating","[5]; Preemergence, scale 0 to 100",0
same,"Plant response rating, Sunflower",[6]; [21],0
same,"Plant response rating, Sunflower",[6]; [22],0
same,"Plant response rating, Sunflower","[6]; 62 g ai/ha, scale 0 to 100",30
same,Sunflower plant response rating,"[6]; 8 g ai/ha, scale 0 to 100",0
same,Blackgrass plant response rating,"[7]; postemergence, 0-100 scale",10
same,"Plant response rating, Blackgrass",[7]; [15],75
same,"Plant response rating, Blackgrass",[7]; [16],90
same,"Plant response rating, Blackgrass",[7]; [17],90
same,"Plant response rating, Blackgrass",[7]; [18],100
same,"Plant response rating, Blackgrass",[7]; [19],100
same,"Plant response rating, Blackgrass",[7]; [20],100
same,Blackgrass plant response rating,"[7]; Preemergence, scale 0 to 100",95
same,"Oat, Wild plant response rating","[8]; postemergence, 0-100 scale",85
same,"Plant response rating, Oat, Wild",[8]; [15],95
same,"Plant response rating, Oat, Wild",[8]; [16],95
same,"Plant response rating, Oat, Wild",[8]; [17],98
same,"Plant response rating, Oat, Wild",[8]; [18],65
same,"Plant response rating, Oat, Wild",[8]; [19],80
same,"Plant response rating, Oat, Wild",[8]; [20],95
same,"Oat, Wild plant response rating","[8]; Preemergence, scale 0 to 100",0
same,Kochia plant response rating,"[9]; postemergence, 0-100 scale",0
same,"Plant response rating, Kochia",[9]; [15],0
same,"Plant response rating, Kochia",[9]; [16],0
same,"Plant response rating, Kochia",[9]; [17],0
same,"Plant response rating, Kochia",[9]; [18],0
same,"Plant response rating, Kochia",[9]; [19],0
same,"Plant response rating, Kochia",[9]; [20],0
same,Kochia plant response rating,"[9]; Preemergence, scale 0 to 100",0
same,Lambsquarters plant response rating,"[10]; postemergence, 0-100 scale",0
same,"Plant response rating, Lambsquarters",[10]; [15],0
same,"Plant response rating, Lambsquarters",[10]; [16],0
same,"Plant response rating, Lambsquarters",[10]; [17],0
same,"Plant response rating, Lambsquarters",[10]; [18],0
same,"Plant response rating, Lambsquarters",[10]; [19],0
same,"Plant response rating, Lambsquarters",[10]; [20],0
same,Lambsquarters plant response rating,"[10]; Preemergence, scale 0 to 100",0
same,"Cupgrass, Woolly plant response rating","[11]; postemergence, 0-100 scale",90
same,"Plant response rating, Cupgrass, Woolly",[11]; [15],98
same,"Plant response rating, Cupgrass, Woolly",[11]; [16],100
same,"Plant response rating, Cupgrass, Woolly",[11]; [17],100
same,"Plant response rating, Cupgrass, Woolly",[11]; [18],50
same,"Plant response rating, Cupgrass, Woolly",[11]; [19],50
same,"Plant response rating, Cupgrass, Woolly",[11]; [20],100
same,"Cupgrass, Woolly plant response rating","[11]; Preemergence, scale 0 to 100",50
same,Pigweed plant response rating,"[12]; postemergence, 0-100 scale",0
same,"Plant response rating, Pigweed",[12]; [15],0
same,"Plant response rating, Pigweed",[12]; [16],0
same,"Plant response rating, Pigweed",[12]; [17],0
same,"Plant response rating, Pigweed",[12]; [18],0
same,"Plant response rating, Pigweed",[12]; [19],0
same,"Plant response rating, Pigweed",[12]; [20],0
same,Pigweed plant response rating,"[12]; Preemergence, scale 0 to 100",0
same,Ragweed plant response rating,"[13]; postemergence, 0-100 scale",0
same,"Plant response rating, Ragweed",[13]; [15],0
same,"Plant response rating, Ragweed",[13]; [16],0
same,"Plant response rating, Ragweed",[13]; [17],0
same,"Plant response rating, Ragweed",[13]; [18],0
same,"Plant response rating, Ragweed",[13]; [19],0
same,"Plant response rating, Ragweed",[13]; [20],0
same,Ragweed plant response rating,"[13]; Preemergence, scale 0 to 100",0
same,Corn plant response rating,"[14]; postemergence, 0-100 scale",45
same,"Plant response rating, Corn",[14]; [15],95
same,"Plant response rating, Corn",[14]; [16],100
same,"Plant response rating, Corn",[14]; [17],100
same,"Plant response rating, Corn",[14]; [18],40
same,"Plant response rating, Corn",[14]; [19],95
same,"Plant response rating, Corn",[14]; [20],98
same,Corn plant response rating,"[14]; Preemergence, scale 0 to 100",40
